The values below come from ChEMBL document CHEMBL1135158, “Pyrrolo[2,3-d]pyrimidines containing diverse N-7 substituents as potent inhibitors of Lck” (Bioorg Med Chem Lett, 2002).

The nature of data set [1]: Half life period was determined after intravenous administration at a dose 5 mg/kg to male Sprague-Dawley rats. Format: ADME, organism-based. Set-up: dose 5 mg/kg, route intravenous. To be noted: rat, in vivo.
Data set [2] in a line: Maximum time constant was determined after oral administration at a dose 10 mg/kg to male Sprague-Dawley rats. In kind it is ADME, organism-based. Set-up: dose 10 mg/kg, route oral. To be noted: rat, in vivo.
A short description of data set [3]: Clearance was determined after intravenous administration at a dose 5 mg/kg to male Sprague-Dawley rats. Format: ADME, organism-based. Further details: dose 5 mg/kg, route intravenous. As to conditions: rat, in vivo.
Data set [4] can be described thus: Bioavailability was determined after intravenous administration at a dose 5 mg/kg to male Sprague-Dawley rats. In kind it is ADME, organism-based. As to conditions: rat, in vivo.
Data set [5] in a line: Volume of distribution was determined after intravenous administration at a dose 5 mg/kg to male Sprague-Dawley rats. Format: ADME, organism-based. Set-up: dose 5 mg/kg, route intravenous. To be noted: rat, in vivo, read-out: Vz.
Data set [6] in a line: Area under curve was determined after oral administration at a dose 10 mg/kg to male Sprague-Dawley rats. Set-up: dose 10 mg/kg, route oral. In kind it is ADME, organism-based. To be noted: rat, in vivo.
For another data set, the species on record is Homo sapiens. The data set can be described thus: Inhibition of IL-2 production in whole blood assay. Format: functional.
In a further data set the test system is Jurkat. Put plainly: Inhibition of IL-2 production in anti-CD3 stimulated Jurkat cells. Format: functional, cell-based. As to conditions: Homo sapiens.
For data set [7], the system named is Mus musculus. The data set can be described thus: Effective dose was evaluated in vivo for the inhibition of IFN-gamma production for 3 days peroral administration of the compound. Format: functional. As to conditions: po, 72 h.
In data set [8] the target is Platelet-derived growth factor receptor (Homo sapiens, UniProt P09619+P16234). Put plainly: Inhibition of Platelet-derived growth factor receptor (Inactive at 1 mM ATP). Format: protein-complex assay.
Data set [9] addresses T1, Tyrosine-protein kinase CSK (Homo sapiens, UniProt P41240). The data set can be described thus: Inhibition of human Tyrosine-protein kinase CSK.
In data set [10] the target is Tyrosine-protein kinase Lyn (Homo sapiens, UniProt P07948). Put plainly: Inhibition of human p56 Lyn tyrosine kinase.
Data set [11] addresses Tyrosine-protein kinase Lck (Homo sapiens, UniProt P06239). The data set can be described thus: Inhibition of human p56 Lck tyrosine kinase (lck64-509).
Data set [12] concerns the target Tyrosine-protein kinase Fyn (Homo sapiens, UniProt P06241). Put plainly: Inhibition of human p55 Fyn tyrosine kinase.
Data set [13] can be described thus: Maximum plasma concentration was determined after oral administration at a dose 10 mg/kg to male Sprague-Dawley rats. As to conditions: rat. Set-up: dose 10 mg/kg, route oral. Format: ADME, organism-based.
Data set [14] concerns the target Tyrosine-protein kinase Blk (Homo sapiens, UniProt P51451). The data set can be described thus: Inhibition of human B lymphoid tyrosine kinase.
Data set [15] addresses Proto-oncogene tyrosine-protein kinase Src (Homo sapiens, UniProt P12931).
Description: Inhibition of Src protein tyrosine kinase
Data set [16] addresses T2, Angiopoietin-1 receptor (Homo sapiens, UniProt Q02763).
Data set [17] in a line: Compound was evaluated for the pharmacokinetic parameter, maximum time constant. As to conditions: mouse, in vivo. In kind it is ADME, organism-based.
Data set [18] in a line: Compound was evaluated for the pharmacokinetic parameter, Terminal half life period. To be noted: mouse, in vivo. In kind it is ADME, organism-based.
The nature of data set [19]: Compound was evaluated for the pharmacokinetic parameter, area under curve. Format: ADME, organism-based. As to conditions: mouse, in vivo.
Data set [20] in a line: Compound was evaluated for the pharmacokinetic parameter, maximum plasma concentration. In kind it is ADME, organism-based. To be noted: mouse.
In data set [21] the test system is Mus musculus. Put plainly: Compound was evaluated for inhibition of interleukin - 2 (IL-2) production in anti -CD3 mAb stimulation in mice after intraperitoneal administration. In kind it is functional. As to conditions: ip.
The test system of data set [22] is Mus musculus. Put plainly: Compound was evaluated for inhibition of interleukin - 2 (IL-2) production in anti -CD3 mAb stimulation in mice after oral administration. In kind it is functional.
The target in data set [23] is Vascular endothelial growth factor receptor 2 (Homo sapiens, UniProt P35968). The data set can be described thus: Inhibition of Vascular endothelial growth factor receptor 2.
Data set [24] addresses T2, Angiopoietin-1 receptor. The data set can be described thus: Inhibition of TIE-2 kinase.
Data set [25] concerns the target T1, Tyrosine-protein kinase CSK. The data set can be described thus: Inhibition of human Csk tyrosine kinase.
The target of data set [26] is T2, Angiopoietin-1 receptor. Put plainly: Inhibition of TIE-2 kinase.
Data set [27] relates to Mus musculus. Put plainly: Compound was evaluated for the inhibition of TCR stimulated (anti-CD3 mAb) IL-2 production in mice following oral administration. Format: functional.

Chain of Proto-oncogene tyrosine-protein kinase Src (P12931 2-536 limits assumed): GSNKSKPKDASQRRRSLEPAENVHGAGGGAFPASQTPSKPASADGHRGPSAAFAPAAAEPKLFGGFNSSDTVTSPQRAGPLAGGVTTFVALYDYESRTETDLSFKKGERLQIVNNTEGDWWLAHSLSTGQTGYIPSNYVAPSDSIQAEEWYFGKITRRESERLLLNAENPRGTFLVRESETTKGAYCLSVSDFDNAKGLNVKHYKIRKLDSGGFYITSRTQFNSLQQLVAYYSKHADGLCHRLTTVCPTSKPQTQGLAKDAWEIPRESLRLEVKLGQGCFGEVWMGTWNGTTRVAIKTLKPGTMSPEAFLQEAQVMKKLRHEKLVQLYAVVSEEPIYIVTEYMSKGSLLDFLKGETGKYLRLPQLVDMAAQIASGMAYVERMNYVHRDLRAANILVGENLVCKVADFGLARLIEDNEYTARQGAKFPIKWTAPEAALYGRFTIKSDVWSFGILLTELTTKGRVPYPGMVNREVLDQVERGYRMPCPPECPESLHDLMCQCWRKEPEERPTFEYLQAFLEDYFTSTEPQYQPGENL
Chain of Tyrosine-protein kinase Lck (P06239 whole entry): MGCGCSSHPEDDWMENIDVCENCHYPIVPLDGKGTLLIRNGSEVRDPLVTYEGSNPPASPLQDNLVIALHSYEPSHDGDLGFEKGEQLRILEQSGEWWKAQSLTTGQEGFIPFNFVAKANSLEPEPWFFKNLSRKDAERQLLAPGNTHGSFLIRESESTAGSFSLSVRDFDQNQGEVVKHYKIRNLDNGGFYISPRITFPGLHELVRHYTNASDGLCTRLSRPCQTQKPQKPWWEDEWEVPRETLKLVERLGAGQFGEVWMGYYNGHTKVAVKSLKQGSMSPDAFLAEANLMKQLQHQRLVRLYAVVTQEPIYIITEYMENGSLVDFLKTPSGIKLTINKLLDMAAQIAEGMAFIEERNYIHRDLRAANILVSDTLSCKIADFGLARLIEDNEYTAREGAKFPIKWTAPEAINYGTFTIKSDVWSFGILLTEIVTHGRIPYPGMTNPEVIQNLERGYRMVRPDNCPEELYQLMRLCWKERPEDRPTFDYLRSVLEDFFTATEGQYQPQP
T2 sequence (Q02763 whole entry): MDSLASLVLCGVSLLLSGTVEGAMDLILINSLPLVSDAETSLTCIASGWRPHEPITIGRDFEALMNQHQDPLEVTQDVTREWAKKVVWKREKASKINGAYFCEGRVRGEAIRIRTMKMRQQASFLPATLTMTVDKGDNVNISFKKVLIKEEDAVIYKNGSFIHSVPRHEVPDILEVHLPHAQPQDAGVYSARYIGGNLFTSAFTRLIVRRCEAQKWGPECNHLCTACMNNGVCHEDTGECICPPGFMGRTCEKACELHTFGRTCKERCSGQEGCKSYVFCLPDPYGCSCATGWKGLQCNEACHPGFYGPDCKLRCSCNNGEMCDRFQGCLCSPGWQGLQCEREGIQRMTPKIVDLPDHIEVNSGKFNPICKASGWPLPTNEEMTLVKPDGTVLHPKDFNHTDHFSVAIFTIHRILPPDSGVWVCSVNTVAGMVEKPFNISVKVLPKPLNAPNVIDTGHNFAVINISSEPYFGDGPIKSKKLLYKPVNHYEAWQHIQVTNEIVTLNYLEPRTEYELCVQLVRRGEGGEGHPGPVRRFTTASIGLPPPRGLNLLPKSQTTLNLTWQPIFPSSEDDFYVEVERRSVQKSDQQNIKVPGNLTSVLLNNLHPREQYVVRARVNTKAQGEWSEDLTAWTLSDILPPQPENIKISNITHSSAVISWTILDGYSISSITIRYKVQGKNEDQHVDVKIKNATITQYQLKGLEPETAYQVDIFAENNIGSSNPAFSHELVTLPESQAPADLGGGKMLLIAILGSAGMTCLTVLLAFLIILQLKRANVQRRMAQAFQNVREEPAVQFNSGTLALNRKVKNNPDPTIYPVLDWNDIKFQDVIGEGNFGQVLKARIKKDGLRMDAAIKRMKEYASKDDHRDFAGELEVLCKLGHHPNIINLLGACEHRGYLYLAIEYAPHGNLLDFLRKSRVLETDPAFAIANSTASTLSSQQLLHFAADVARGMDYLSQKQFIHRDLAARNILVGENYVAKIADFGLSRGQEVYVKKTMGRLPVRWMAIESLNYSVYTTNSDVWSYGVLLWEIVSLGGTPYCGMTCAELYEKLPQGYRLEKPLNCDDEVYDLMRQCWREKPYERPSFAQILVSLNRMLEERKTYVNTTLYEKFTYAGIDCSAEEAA
Chain of Tyrosine-protein kinase Lyn (P07948 whole entry): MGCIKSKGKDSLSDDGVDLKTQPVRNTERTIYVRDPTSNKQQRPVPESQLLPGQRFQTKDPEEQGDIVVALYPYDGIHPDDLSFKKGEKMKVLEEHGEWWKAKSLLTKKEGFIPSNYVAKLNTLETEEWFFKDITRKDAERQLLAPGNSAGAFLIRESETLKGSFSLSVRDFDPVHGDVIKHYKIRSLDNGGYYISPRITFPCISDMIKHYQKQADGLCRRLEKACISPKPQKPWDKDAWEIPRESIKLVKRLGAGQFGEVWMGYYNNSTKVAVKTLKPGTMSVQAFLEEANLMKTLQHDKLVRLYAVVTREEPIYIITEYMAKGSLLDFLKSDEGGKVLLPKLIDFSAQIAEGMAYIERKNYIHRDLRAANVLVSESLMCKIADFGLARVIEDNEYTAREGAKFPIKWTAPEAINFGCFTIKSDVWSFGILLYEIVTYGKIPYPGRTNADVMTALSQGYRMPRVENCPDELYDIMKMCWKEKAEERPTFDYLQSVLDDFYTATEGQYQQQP
Chain of Tyrosine-protein kinase Fyn (P06241 whole entry): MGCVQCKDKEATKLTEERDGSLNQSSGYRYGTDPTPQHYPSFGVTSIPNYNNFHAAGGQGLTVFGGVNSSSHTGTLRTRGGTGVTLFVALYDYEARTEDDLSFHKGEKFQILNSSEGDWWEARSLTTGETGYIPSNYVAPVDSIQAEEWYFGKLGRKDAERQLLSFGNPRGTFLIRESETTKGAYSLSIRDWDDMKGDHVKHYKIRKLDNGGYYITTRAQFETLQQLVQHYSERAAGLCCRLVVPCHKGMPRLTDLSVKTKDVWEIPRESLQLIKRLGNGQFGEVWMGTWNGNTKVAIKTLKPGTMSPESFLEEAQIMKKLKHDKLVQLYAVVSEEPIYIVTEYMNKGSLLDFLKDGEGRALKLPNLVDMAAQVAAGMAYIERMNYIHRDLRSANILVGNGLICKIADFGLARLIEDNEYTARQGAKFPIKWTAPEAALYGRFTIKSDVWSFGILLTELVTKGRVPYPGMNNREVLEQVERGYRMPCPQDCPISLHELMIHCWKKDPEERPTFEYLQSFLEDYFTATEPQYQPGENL
T1 sequence (P41240 whole entry): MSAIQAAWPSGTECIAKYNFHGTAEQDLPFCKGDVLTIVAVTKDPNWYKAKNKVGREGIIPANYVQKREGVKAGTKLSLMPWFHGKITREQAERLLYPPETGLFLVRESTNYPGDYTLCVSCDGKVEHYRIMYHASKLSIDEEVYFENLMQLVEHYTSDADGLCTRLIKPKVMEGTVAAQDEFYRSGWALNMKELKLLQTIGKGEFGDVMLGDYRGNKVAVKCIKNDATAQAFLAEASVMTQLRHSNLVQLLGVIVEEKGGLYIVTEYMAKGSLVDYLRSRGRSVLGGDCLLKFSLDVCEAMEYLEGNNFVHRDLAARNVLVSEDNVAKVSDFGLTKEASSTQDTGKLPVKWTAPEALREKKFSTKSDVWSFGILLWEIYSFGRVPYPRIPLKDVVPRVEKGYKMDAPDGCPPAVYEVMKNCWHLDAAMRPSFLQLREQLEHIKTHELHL
Chain of Tyrosine-protein kinase Blk (P51451 whole entry): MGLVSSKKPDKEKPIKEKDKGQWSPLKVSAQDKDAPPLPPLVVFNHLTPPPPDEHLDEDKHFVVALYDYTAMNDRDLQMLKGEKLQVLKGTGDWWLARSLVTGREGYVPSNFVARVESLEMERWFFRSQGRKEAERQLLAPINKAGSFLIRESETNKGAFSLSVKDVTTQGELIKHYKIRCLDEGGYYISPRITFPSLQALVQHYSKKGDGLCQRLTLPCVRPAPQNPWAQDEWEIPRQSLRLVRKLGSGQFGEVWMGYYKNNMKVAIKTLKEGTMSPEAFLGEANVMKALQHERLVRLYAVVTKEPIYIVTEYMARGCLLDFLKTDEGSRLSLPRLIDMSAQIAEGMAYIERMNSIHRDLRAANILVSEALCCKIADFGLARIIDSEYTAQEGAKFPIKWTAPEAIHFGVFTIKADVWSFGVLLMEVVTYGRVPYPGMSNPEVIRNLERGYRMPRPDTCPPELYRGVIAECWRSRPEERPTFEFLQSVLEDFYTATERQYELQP

One may read the half-life as the time needed for the level to fall by half in the phase considered. Low readings indicate fast loss, high ones slow loss. The Tmax is the time from dosing to the highest level. The clearance is the rate of elimination divided by the concentration. A higher clearance goes with a high capacity for elimination. One may read the bioavailability as dose-corrected exposure relative to a reference, in per cent. Higher therefore signals much systemic uptake. A word on the AUC: it is the area under the concentration-time curve, a measure of exposure. One may read the IC50 as the point on the concentration scale where inhibition reaches its midpoint. Read a high IC50 as weaker potency in that assay. In general, ED50 refers to the dose that gives a 50% effect, or the effect in half of the subjects. Higher therefore signals a need for a large dose. The term Cmax denotes the peak of the concentration-time curve. For the molecule `CN1CCN([C@H]2CC[C@@H](n3cc(-c4ccc(Oc5ccccc5)cc4)c4c(N)ncnc43)CC2)CC1`, the half-life in data set [1] is 14.3 h. Moreover, the Tmax in data set [2] came out at 4 h. The clearance in data set [3] was 88.3 mL/min/kg. In data set [4], the bioavailability came out at 54%. Moreover, in data set [5], the Vd is 140 L/kg. Further, in [6], the AUC came to 661 ng·h/mL. Also, the IC50 in the data set listed under Homo sapiens was 70 nM; in the data set on Jurkat, 25 nM; in data set [8], more than 20000 nM; in data set [9], 41 nM; in data set [10] it was 29 nM; in data set [11] it was 15 nM. Moreover, the IC50 in [12] is 59 nM; in data set [14], 46 nM; in data set [15], 42 nM; against Angiopoietin-1 receptor [16], 250 nM. The same molecule displayed an ED50 in the data set on Mus musculus [7] of 2.2 mg/kg. Besides, in [13], the concentration peaked (Cmax) at 113 nM.
`Nc1ncnc2c1c(-c1ccc(Oc3ccccc3)cc1)cn2C1CCCC1`: the Tmax in [17] was determined as 0.25 h. In addition, the half-life in data set [18] was 7.7 h. Further, the AUC in [19] turned out to be 34.3 ng·h/mL. This molecule gave a Cmax in data set [20] of 28 nM. The 50% effective dose (ED50) is 4 mg/kg in the data set with Mus musculus [21] and 25 mg/kg in the data set with Mus musculus [22]. Also, the IC50 came out at 4440 nM in data set [23], 100 nM in data set [11], 9070 nM against Angiopoietin-1 receptor [24] and 560 nM in data set [15].
At Angiopoietin-1 receptor [16], `NCCn1cc(-c2ccc(Oc3ccccc3)cc2)c2c(N)ncnc21` registered an IC50 of more than 50000 nM.
On to `CN1CCN([C@H]2CC[C@H](n3cc(-c4ccc(Oc5ccccc5)cc4)c4c(N)ncnc43)CC2)CC1`, for which the IC50 stood at 4270 nM in data set [25]; 5850 nM on Angiopoietin-1 receptor [26]; 430 nM in [10]; 240 nM in [11]; 2030 nM in [12]; 370 nM in data set [14]. Moreover, the IC50 in data set [15] was 1190 nM.
For `CN1CCN([C@H]2CC[C@@H](n3cc(-c4ccc(Oc5ccccc5)cc4)c4c(N)ncnc43)CC2)CC1.O=C(O)/C=C\C(=O)O`, the 50% effective dose (ED50) in the data set on Mus musculus [27] is 2.5 mg/kg.
